Test results published in article PMC7600788, “Sequence Permutation Generates Peptides with Different Antimicrobial and Antibiofilm Activities” (Pharmaceuticals, 2020).
Read-outs that look alike come from different tables or passages of the source. No end group written: not given here.

Key:
Pig RBC = assay: Hemolytic assay; format: cell-based
Method: (§1) Hemolytic assays of peptides were performed as previously described. Briefly, human red blood cells (hRBCs) obtained from UNMC Blood Bank, or chicken or porcine blood cells purchased from commercial sources as previously described, were washed three times with phosphate buffer saline (PBS) and diluted to a 2% solution (V/v). After peptide treatment, incubation at 37 °C for one hour, and centrifugation at 13,000 rpm, aliquots of the supernatant were carefully transferred to a fresh 96-well microplate. The amount of hemoglobin released was measured at 545 nm. The percent lysis was calculated by assuming 100% release when human blood cells were treated with 2% Triton X-100, and 0% release when incubated with PBS buffer. The peptide concentration that caused 50% lysis of hRBCs is defined as HC50.

chicken red blood cells = assay: Hemolytic assay; format: cell-based
Method: as §1

human red blood cells = assay: Hemolytic assay; format: cell-based
Method: as §1

P. aeruginosa PAO1 = format: cell-based, Pseudomonas aeruginosa
Method: (§2) The antimicrobial activity spectrum of the WW peptide series was performed on a panel of Gram-positive and -negative bacteria using the standard broth micro-dilution method with minor modifications as described. […] There was a small change in the case of Pseudomonas aeruginosa and Acinetobacter baumannii up to two-fold. Four-fold changes were found for Staphylococcus aureus, Staphylococcus epidermidis, Escherichia coli, and Bacillus subtilis. However, we observed over eight-fold MIC changes for Klebsiella pneumoniae and vancomycin-resistant enterococcus (VRE). […] We also observed more than eight-fold changes in minimal bacterial killing concentrations.
(§3) The antibacterial activity of peptides was evaluated using a standard broth microdilution protocol with minor modifications as previously described. In brief, logarithmic phase bacterial cultures (i.e., optical density at 600 nm ≈ 0.5) were diluted to OD600~0.001 and partitioned into a 96-well polystyrene microplate at 90 μL per well. After treatment with 10 μL of peptide solutions two-fold diluted to various concentrations, microplates were incubated at 37 °C overnight and read on a ChroMate 4300 Microplate Reader at 630 nm (GMI, Ramsey, MN). […] Minimal bactericidal concentration (MBC) was determined by plating the clear wells at MIC or above. The peptide concentration that caused no bacterial growth on the petri dish is MBC.

E. faecium VRE = format: cell-based
Method: as §2, §3

S. aureus Mu50 = format: cell-based, Staphylococcus aureus
Method: as §2, §3

B. subtilis 167 = format: cell-based, Bacillus subtilis
Method: as §2, §3

S. aureus USA300 = format: cell-based, Staphylococcus aureus
Method: as §3

A. baumannii B28-16 = format: cell-based, Acinetobacter baumannii
Method: as §2, §3

S. aureus USA300 LAC = format: cell-based, Staphylococcus aureus
Method: (§4) To gain additional insight, we also compared the effects of physiological saline and human serum on the antibacterial activities of WW291-WW298 using both E. coli and S. aureus (Table 3). In our assays, salts and serum were present during the entire course of the experiment. […] Thus, WW295 and WW298 stand out in terms of activity robustness (bold in Table 3).
as §3

E. coli ATCC 25922 = format: cell-based, Escherichia coli
Method: as §4, §3

[1] = system: monkey kidney Vero E6 cells; format: cell-based
Method: Peptides were assayed for potential in vitro toxicity against human keratinocytes (HaCaT) and THP-1 cells as previously described. THP-1 monocytes were differentiated into macrophages by adding 30 ng/mL of phorbol 12-myristate 13-acetate (PMA; Sigma-Aldrich) to RPMI 1640 supplemented with 10% fetal calf serum culture (FCS) medium for 16 h. Briefly, cells were seeded at a density of 3 × 10^4 per well in a tissue culture 96-well plate in DMEM/RPMI supplemented with 10% fetal bovine serum (FBS), and incubated at 37 °C in a 5% CO2 atmosphere for 24 h. African green monkey kidney Vero E6 cells were cultivated in EMEM in the same manner. Before antimicrobial treatment, wells were replaced with serum free media and treated with peptides at different concentrations for one hour. After incubation, the cells were washed and incubated with 100 μL of DMEM media containing 20 μL of 3-(4,5-dimethylthiazol-2-yl)-5-(3-carboxymethoxyphenyl)-2-(4-sulfophenyl)-2H-tetrazolium (MTS) reagent for two hours at 37 °C. […] Absorbance readings at 492 nm were taken using a ChroMate microplate reader (GMI, Ramsey, MN, USA).

[2] = system: human keratinocytes (HaCaT); assay: MTS cytotoxicity assay; format: cell-based; conditions: serum free media, one hour treatment
Method: (§5) Peptides were assayed for potential in vitro toxicity against human keratinocytes (HaCaT) and THP-1 cells as previously described. THP-1 monocytes were differentiated into macrophages by adding 30 ng/mL of phorbol 12-myristate 13-acetate (PMA; Sigma-Aldrich) to RPMI 1640 supplemented with 10% fetal calf serum culture (FCS) medium for 16 h. Briefly, cells were seeded at a density of 3 × 10^4 per well in a tissue culture 96-well plate in DMEM/RPMI supplemented with 10% fetal bovine serum (FBS), and incubated at 37 °C in a 5% CO2 atmosphere for 24 h. African green monkey kidney Vero E6 cells were cultivated in EMEM in the same manner. Before antimicrobial treatment, wells were replaced with serum free media and treated with peptides at different concentrations for one hour. After incubation, the cells were washed and incubated with 100 μL of DMEM media containing 20 μL of 3-(4,5-dimethylthiazol-2-yl)-5-(3-carboxymethoxyphenyl)-2-(4-sulfophenyl)-2H-tetrazolium (MTS) reagent for two hours at 37 °C. The treatment time was one hour in the case of Vero E6 cells. Absorbance readings at 492 nm were taken using a ChroMate microplate reader (GMI, Ramsey, MN, USA).

[3] = system: PMA differentiated THP-1 cells; assay: MTS cytotoxicity assay; format: cell-based; conditions: PMA differentiated THP-1, serum free media, one hour treatment
Method: as §5

E. coli K12 = format: cell-based, Escherichia coli
Method: as §2, §3

[4] = 2% RBC in PBS, 37 °C, one hour, hemoglobin at 545 nm

Sequence | Pig RBC, concentration that caused 50% red blood cell lysis (HC50) (Pig RBC) | Chicken RBC, concentration that caused 50% red blood cell lysis (HC50) (chicken red blood cells) | Human RBC, concentration that caused 50% red blood cell lysis (HC50) (human red blood cells; red cells of human) | Minimal Inhibitory Concentration (MIC), PA (P. aeruginosa PAO1; PAO1) | Minimal Inhibitory Concentration (MIC), VRE (E. faecium VRE; VRE) | Minimal Inhibitory Concentration (MIC), SA (S. aureus Mu50; Mu50) | Minimal Inhibitory Concentration (MIC), BS (B. subtilis 167; 167) | MBC, USA300 (S. aureus USA300; USA300) | Minimal Inhibitory Concentration (MIC), AB (A. baumannii B28-16; B28-16) | MIC, +150 mM NaCl (S. aureus USA300 LAC; USA300) | MIC, TSB (S. aureus USA300 LAC; USA300) | MIC, +150 mM NaCl (E. coli ATCC 25922; ATCC 25922) | MIC, +10% Human Serum (E. coli ATCC 25922; ATCC 25922) | MIC, TSB (E. coli ATCC 25922; ATCC 25922) | Vero Cells, concentration that caused 50% cell death (LC50) [1] | HaCaT, concentration that caused 50% cell death (LC50) [2] | THP-1, concentration that caused 50% cell death (LC50) [3] | Minimal Inhibitory Concentration (MIC), EC (E. coli K12; K12) | MIC, +10% Human Serum (S. aureus USA300 LAC; USA300) | other results
KIWWWWLR [WW296] | >100 µM | 50 µM | 103 µM | 50 µM | 25 µM | 3.1 µM | 12.5 µM | 6.2 µM | 12.5 µM | 1.6 µM | 1.6 µM | 25 µM | >25 µM | 3.1 to 6.2 µM | >100 µM | 100 µM | 35 µM | 6.2 to 12.5 µM |  | 
IWWWWLRK [WW297] |  |  |  |  |  |  |  |  |  |  |  |  |  |  |  | 100 µM | 38 µM |  |  | Pig RBC, concentration that caused 50% red blood cell lysis (HC50) (Pig RBC; [4]): 110 µM; Chicken RBC, concentration that caused 50% red blood cell lysis (HC50) (chicken red blood cells; [4]): 100 µM; Human RBC, concentration that caused 50% red blood cell lysis (HC50) (human red blood cells; [4]): 134 µM; Minimal Inhibitory Concentration (MIC), PA (P. aeruginosa PAO1; P. aeruginosa PAO1, broth microdilution, 37 °C overnight): 50 µM; Minimal Inhibitory Concentration (MIC), VRE (E. faecium VRE; E. faecium VRE, broth microdilution, 37 °C overnight): 12.5 µM; Minimal Inhibitory Concentration (MIC), SA (S. aureus Mu50; S. aureus Mu50, broth microdilution, 37 °C overnight): 6.2 µM; Minimal Inhibitory Concentration (MIC), BS (B. subtilis 167; B. subtilis 167, broth microdilution, 37 °C overnight): 12.5 µM; MBC, USA300 (S. aureus USA300; S. aureus USA300, minimal bactericidal concentration, plating clear wells at MIC or above): 12.5 µM; Minimal Inhibitory Concentration (MIC), AB (A. baumannii B28-16; A. baumannii B28-16, broth microdilution, 37 °C overnight): 6.25 to 12.5 µM; MIC, TSB (S. aureus USA300 LAC; S. aureus USA300 LAC, TSB): 3.1 µM; MIC, +150 mM NaCl (S. aureus USA300 LAC; S. aureus USA300 LAC, TSB +150 mM NaCl, present during entire experiment): 3.1 µM; MIC, +10% Human Serum (S. aureus USA300 LAC; S. aureus USA300 LAC, TSB +10% human serum, present during entire experiment): 25 µM; MIC, TSB (E. coli ATCC 25922; E. coli ATCC 25922, TSB): 12.5 µM; MIC, +150 mM NaCl (E. coli ATCC 25922; E. coli ATCC 25922, TSB +150 mM NaCl, present during entire experiment): 12.5 µM; MIC, +10% Human Serum (E. coli ATCC 25922; E. coli ATCC 25922, TSB +10% human serum, present during entire experiment): >25 µM; Vero Cells, concentration that caused 50% cell death (LC50) ([1]; Vero E6, serum free media, one hour treatment, MTS assay): >100 µM; Minimal Inhibitory Concentration (MIC), EC (E. coli K12; E. coli K12, broth microdilution, 37 °C overnight): 12.5 to 25 µM
WWLRKIWW [WW292] | >100 µM | >100 µM | 175 µM | 25 µM | >50 µM | 12.5 µM | 12.5 µM | >25 µM | 12.5 µM | 6.2 µM | 6.2 µM | >25 µM | >25 µM | 12.5 µM | >100 µM | >100 µM | >100 µM | 25 µM | >25 µM | 
WWWWLRKI [WW298] | 37 µM | 70 µM | 52 µM | 50 µM | 12.5 µM | 3.1 µM | 6.25 to 12.5 µM | 3.1 µM | 6.25 to 12.5 µM | 1.6 µM | 1.6 µM | 12.5 µM | >25 µM | 12.5 µM | 100 µM | 80 µM | 30 µM | 12.5 µM | 12.5 to 25 µM | 
LRKIWWWW [WW294] | >100 µM | >100 µM | 143 µM | 50 µM | 25 µM | 12.5 µM | 25 µM | 25 µM | 12.5 µM | 6.2 µM | 6.2 µM | 25 µM | >25 µM | 12.5 µM | >100 µM | >100 µM | >100 µM | 12.5 µM | 25 µM | 
WLRKIWWW [WW293] | >100 µM | >100 µM | 224 µM | 50 µM | 50 µM | 12.5 µM | 12.5 µM | 25 µM | 12.5 µM | 6.2 µM | 6.2 µM | >25 µM | >25 µM | 12.5 µM | >100 µM | >100 µM | >100 µM | 12.5 to 25 µM | >25 µM | 
